Results from patent US11583525B2, “Geranylgeranyltransferase I inhibitor for treatment of a PTEN defective cancer” (H. LEE MOFFITT CANCER CENTER AND RESEARCH INSTITUTE, INC., priority 2017, dated 2023).
“Also recorded” adds a separate entry of the source.

Test system: A549 cells
Assay: A549 cell xenografts in NOD/SCID gamma mice, GGTi-2418 alone or in combination with PDT
Assay type: in vivo
Settings: 50 mg kg-1 intratumoural injection
Text: FIGS. 4A, 4B, 4C, and 4D show both a non-degradable IP3R3 mutant and GGTi-2418 sensitize tumours to PDT. […] Implanted xenotransplanted mice, chosen randomly, were subjected to two rounds of PDT (see arrows) or left untreated (UT); n=4-6 mice per group. Left panel, tumour growth kinetics at the indicated time points. Middle panel, representative tumours imaged with IRDye 2-DG at the end of the experiment. Top right panel, representative excised tumours imaged 60 days post-injection. Bottom right panel, quantification of tumour weights. P values for the tumour volume and weight at day 60 were calculated by one-way ANOVA and multiple-comparisons test. Error bars indicate s.e.m. […] Middle panel, quantification of apoptosis. […] AFU, arbitrary fluorescence units. P values were calculated by one-way ANOVA and multiple-comparisons test. […] Bottom right panel, quantification of tumour weights. P values for the tumour volume and weight at day 60 were calculated by one-way ANOVA and multiple-comparisons test. […] Middle panel, quantification of apoptosis. […] P values were calculated by one-way ANOVA and multiple-comparisons test. […]
Experimental animals. […] Tumour growth was monitored daily, and tumour diameters were measured with callipers every other day. The tumour volume was calculated using the following equation: volume=π/6 ×(a×b2), where a is the major diameter and b is the minor diameter. […]

Cc1nc[nH]c1CN1CCN(C(=O)N[C@@H](CC(C)C)C(=O)O)[C@@H](Cc2ccccc2)C1=O [GGTi-2418]
growth rate of xenografts (GGTi-2418 by itself, two rounds of five consecutive days): only modestly affected the growth rate of xenografts | sensitization of tumour xenografts to PDT (tumour growth, weight, apoptosis) (GGTi-2418 in combination with PDT): sensitizes xenotransplanted tumours to photodynamic therapy; also recorded: significantly sensitized tumour xenografts to PDT
